{"source": "paper PMC5238392", "about": "“Origin of anti-tumor activity of the cysteine-containing GO peptides and further optimization of their cytotoxic properties” (Scientific Reports, 2017)", "key": {"[1]": {"test_system": "human fibrosarcoma cell line HT-1080", "type": "cell-based", "conditions": "HT-1080"}, "HT-1080 cells [2]": {"test_system": "HT-1080 cells", "experiment": "Cell cycle phase distribution, HT-1080", "type": "cell-based, human", "conditions": "24 h incubation with 5 μM", "description": "The onset and the progression of the apoptosis are relatively fast, on the time scale of 1 h. […] Indeed, the cell cycle phase distribution remains unaffected by addition of the peptide. For example, in the untreated (control) HT-1080 sample the distribution between G0/G1, S, and G2/M phases is 52%, 23% and 26%, respectively. After 24 h incubation with 5 μM GO-203 this proportion is essentially unchanged at 50%, 24%, and 27%.\n(§1) The adherent cells were rinsed with PBS, harvested using trypsin-EDTA solution and suspended in the growth medium. To analyze cell cycle phase distribution, 200 μg/ml of saponin (Fluka, USA), 250 μg/ml RNase A, and 50 μg/ml of propidium iodide (both Sigma-Aldrich, USA) were added to each sample tube, thus obtaining DNA stain buffer. After 1 h incubation at room temperature, the samples were analyzed by flow cytometry. To detect apoptosis by flow cytometry, CellEvent Caspase-3/7 Green Flow Cytometry Assay Kit (Thermo Fisher Scientific, USA) and Annexin-V FITC conjugate (BD Biosciences, USA) in combination with propidium iodide have been employed following the manufacturer’s protocols.\nFigure S2. Cell cycle distribution for (A) HT-1080 cells treated with one-time dose of 5 μM GO-203 and (B) ZR-75-1 cells treated with one-time dose of 10 μM GO-203. The peptide concentrations have been chosen such as to induce significant cytotoxic effect without causing massive cell death. The data were taken 24 h after the application of the peptide.\nFigure S3. H2DCFDA/DCFDA experiment to assess the level of ROS in (A) HT-1080 cells after 30 min incubation with 5 μM GO-203 and (B) ZR-75-1 cells after 30 min incubation with 10 μM GO-203. A statistically significant difference in the intensity of DCF fluorescence response is marked by an asterisk. […]"}, "ZR-75-1": {"test_system": "ZR-75-1", "experiment": "Rhodamine 123 mitochondrial membrane potential, ZR-75-1", "type": "cell-based, human", "conditions": "30 min after application, same scheme as H2DCFDA/DCFDA measurements", "description": "Finally, the same experimental scheme as described above for H2DCFDA/DCFDA measurements was also used with Rhodamine 123. […] The same observation has been made for ZR-75-1.\nThe cells were seeded into 35-mm Nunc culture dishes (Thermo Scientific, USA) at 1.2 × 10^5 cells per dish and allowed to attach for 24 h. To monitor intracellular ROS in a time-dependent manner, the cells were incubated for 30 min with 10 μM of carboxy-H2DCFDA (Invitrogen, USA), then harvested with trypsin-EDTA and suspended in a fresh medium. After that GO-203 was added directly to the suspension and cell fluorescence was measured by flow cytometry at multiple time points during the following 2 hours. The same procedure was used for mitochondria-specific fluorescent dye Rhodamine 123 (Thermo Fisher Scientific, USA), which was added to a concentration of 5 μM. The complementary side scatter measurements were conducted using 488 nm laser light. In another series of experiments, we have used the related indicator of oxidative stress, H2DCFDA (Invitrogen, USA). The experiment started by adding GO-203 to the cell growth medium; then 10 min later 5 μM of H2DCFDA has been added. After 20 min incubations with H2DCFDA, the cells were harvested with trypsin-EDTA and suspended in a fresh medium. Cell fluorescence was then immediately measured by flow cytometry. […]"}, "[3]": {"test_system": "human lung carcinoma cell line A549", "experiment": "MTS cell viability assay, A549", "type": "cell-based", "description": "All experiments were conducted in duplicate or triplicate."}, "[4]": {"test_system": "human breast carcinoma cell line ZR-75-1", "experiment": "MTS cell viability assay, ZR-75-1", "quoted_text": "(§2) As a next step, we used MTS assay[27] to examine the effect of GO peptides on the viability of the four described cell cultures as a function of different treatment schemes. […] This treatment regimen is labeled 4 × 5 underneath the graph. Alternatively, we introduced 5 μM of peptide daily while exchanging the medium (denoted 4/5). Unlike the previous protocol, it avoids potential build-up of the peptide in the medium.\n(§3) The treatment protocols are: 4 × 5 – four daily doses of 5 μM delivered without exchanging the growth medium; 4/5 – four daily doses of 5 μM delivered with exchanged growth medium; 1 × 5, 1 × 10, 1 × 15, and 1 × 20 – a single dose of 5, 10, 15, or 20 μM, respectively. MTS reagent was added to the wells 96 h after the first (and sometimes the only) application of the peptide and the optical density at 492 nm was measured to determine the fraction of the surviving cells.\nThe data are according to the MTS assay, where the optical density was measured 96 h after the application of the peptide.\n(§4) Cell survival was measured using CellTiter 96 AQueous One Solution Cell Proliferation Assay (MTS test, Promega, USA). Cells have been seeded in a 96-well flat-bottom plate in 100 μl of culture medium (10^3 cells/well for A549, HT-1080, dermal fibroblasts and eMSC or 5 × 10^3 cells/well for ZR-75-1) and allowed to attach for 24 h. The starting amount of cells was chosen to account for their growth rate and degree of spreading such as to avoid excessive dilution in the beginning of the experiment or control cell overgrowth toward the end. After 24 h, 10 μl of peptide stock solution or PBS (control) were added to the wells. After 96 h, 20 μl of the MTS-reagent were added to each well and 1–2 h later optical density was measured at the wavelength 492 nm using the 96-well plate reader (Titertek Multiskan, Labsystems, Finland). All experiments were conducted in duplicate or triplicate."}, "HT-1080 cells [5]": {"test_system": "HT-1080 cells", "experiment": "FITC Annexin V / propidium iodide apoptosis assay, HT-1080", "type": "cell-based, human", "conditions": "10 μM", "description": "Already 2 h after administration of 10 μM dose, the system reaches a steady state with 18% of healthy cells, 17% of early apoptotic cells, and 58% of late apoptotic cells. It remains in this state for the entire period of observations, 24 h.\nFigure 3 GO-203-induced apoptosis in HT-1080 and ZR-75-1 cells as assessed by FITC Annexin V (AnV) and propidium iodide (PI) double staining. (A–D) Flow cytometry histograms for the cells incubated for 4 h with 10 μM of GO-203 and the untreated (control) cells. (E–H) Apoptotic fractions in the GO-203-treated and untreated (control) cells as a function of incubation time and GO-203 concentration; color coding is explained in the legend. TEXT PRINTED IN THE PICTURE: (B) GO-203: HT-1080: IV.(1.90 %); HT-1080: III.(52.62 %); HT-1080: I.(19.45 %); HT-1080: II.(26.04 %) | (D) GO-203: ZR-75-1: IV.(8.19 %); ZR-75-1: III.(8.65 %); ZR-75-1: I.(37.84 %); ZR-75-1: II.(45.32 %)\nas §1\nCell fluorescence was measured using CytoFLEX (Beckman Coulter, USA) flow cytometer equipped with 3 lasers (405, 488 and 633 nm). Cells were gated on FSC/SSC to remove debris. Mean fluorescence intensity from 10,000 cells was acquired."}, "[6]": {"test_system": "primary culture of human dermal fibroblasts (DF)", "experiment": "MTS cell viability assay, dermal fibroblasts", "quoted_text": "as §2, §3\nAs a next step, we set out to test the cytotoxic effect of these peptides on the normal cells.\nas §4"}, "[7]": {"conditions": "1 × 5: single dose of 5 μM, 96 h"}, "[8]": {"conditions": "4/5: four daily doses of 5 μM with exchanged growth medium, 96 h"}, "[9]": {"conditions": "1 × 20: single dose of 20 μM, 96 h"}, "[10]": {"conditions": "4 × 5: four daily doses of 5 μM without exchanging growth medium, OD 492 nm 96 h after first application"}, "[11]": {"conditions": "4 h, representative plot Fig. 3B"}}, "note": "Where two headings read alike, the source gives them in different places."}
{"substance": "[R]9CQCRRKN [GO-203]", "values": [{"measurement": "Cell viability (MTS)", "setting": "[1]; [7]", "value": "essentially inconsequential"}, {"measurement": "Cell viability (MTS)", "setting": "[1]; 1 × 10: single dose of 10 μM, 96 h", "value": "nearly wipes out"}, {"measurement": "Cell viability (MTS)", "setting": "[1]; [8]", "value": "inefficient"}, {"measurement": "Cell viability (MTS)", "setting": "[1]; 4 × 5: four daily doses of 5 μM without exchanging growth medium, OD 492 nm 96 h after first application, duplicate or triplicate", "value": "essentially complete cell death"}, {"measurement": "cells in S phase", "setting": "HT-1080 cells [2]; control 23%", "value": 24, "unit": "%"}, {"measurement": "cells in G2/M phase", "setting": "HT-1080 cells [2]; control 26%", "value": 27, "unit": "%"}, {"measurement": "cells in G0/G1 phase", "setting": "HT-1080 cells [2]; control 52%", "value": 50, "unit": "%"}, {"measurement": "Mitochondrial membrane potential (Rhodamine 123)", "setting": "ZR-75-1", "value": "fully maintained"}, {"measurement": "Cell viability (MTS)", "setting": "[3]; [7]", "value": "essentially inconsequential"}, {"measurement": "Cell viability (MTS)", "setting": "[3]; [9]", "value": "substantially cytotoxic"}, {"measurement": "Cell viability (MTS)", "setting": "[3]; [8]", "value": "inefficient"}, {"measurement": "Cell viability (MTS)", "setting": "[3]; [10]", "value": "considerable damage"}, {"measurement": "Cell viability (MTS)", "setting": "[4]; [7]", "value": "essentially inconsequential"}, {"measurement": "Cell viability (MTS)", "setting": "[4]; [9]", "value": "substantially cytotoxic"}, {"measurement": "Cell viability (MTS)", "setting": "[4]; [8]", "value": "inefficient"}, {"measurement": "Cell viability (MTS)", "setting": "[4]; [10]", "value": "considerable damage"}, {"measurement": "early apoptotic cells (Annexin V/PI)", "setting": "HT-1080 cells [5]; 2 h after administration", "value": 17, "unit": "%"}, {"measurement": "late apoptotic cells (Annexin V/PI)", "setting": "HT-1080 cells [5]; 2 h after administration", "value": 58, "unit": "%"}, {"measurement": "healthy cells (Annexin V/PI)", "setting": "HT-1080 cells [5]; 2 h after administration (steady state up to 24 h)", "value": 18, "unit": "%"}, {"measurement": "quadrant I fraction (Annexin V/PI dot plot)", "setting": "HT-1080 cells [5]; [11]", "value": 19.45, "unit": "%"}, {"measurement": "quadrant II fraction (Annexin V/PI dot plot)", "setting": "HT-1080 cells [5]; [11]", "value": 26.04, "unit": "%"}, {"measurement": "quadrant III fraction (Annexin V/PI dot plot)", "setting": "HT-1080 cells [5]; [11]", "value": 52.62, "unit": "%"}, {"measurement": "quadrant IV fraction (Annexin V/PI dot plot)", "setting": "HT-1080 cells [5]; [11]", "value": 1.90, "unit": "%"}, {"measurement": "Cell viability (MTS)", "setting": "[6]; dermal fibroblasts, 1 × 5: single dose of 5 μM, 96 h", "value": "essentially inconsequential"}, {"measurement": "Cell viability (MTS)", "setting": "[6]; dermal fibroblasts, 4/5: four daily doses of 5 μM with exchanged growth medium, 96 h", "value": "inefficient"}, {"measurement": "Cell viability (MTS)", "setting": "[6]; dermal fibroblasts, 4 × 5: four daily doses of 5 μM without exchanging growth medium, OD 492 nm 96 h after first application", "value": "essentially complete cell death"}, {"measurement": "Cell viability (MTS)", "setting": "[6]; skin (dermal) fibroblasts, 1 × 10: single dose of 10 μM, 96 h", "value": "nearly wipes out"}]}
